According to patent US20050054653A1, “Pteridine derivatives, method of producing them and their application” (Faustus Forschungs Cie. Translational Cancer Research GmbH, priority 2002, published 2005):

Columns and labels:
Type in all cases: cell-based
NCI-H460 = assay: Growth inhibition of human tumor cell line NCI-H460; conditions: NCI-H460 bronchial carcinoma
Source text: (§1) FIG. 1 is a representation of the IC50 values of the growth inhibition when using the compounds E288, E289 and E499 on the human tumor cell lines COLO 205 and NCI-H460.
(§2) Further in-vitro results of the compounds according to the invention E288 (6-chloro-2-piperazino-4,7-dithiazolidino-pteridine) and E289 (6-methoxy-2-piperazino-4,7-dithiazolidino-pteridine) are summarized in the following in comparison to E499 (6-chloro-2-piperazino-4,7-dipyrrolidino-pteridine) (all IC50 figures are described in [μM]).
(§3) This includes the human cell lines A431 ([…]), OVCAR-3 (ovarian carcinoma), BT-549 and MCF-7 (mammary carcinoma), SK-MEL-28 and SK-MEL-5 (melanoma), SW 620 and HCT-15 (colon), A549 (lung carcinoma) as well as the glioblastoma cell line C6 of the rat.

COLO 205 = assay: Growth inhibition of human tumor cell line COLO 205; conditions: COLO 205 colon carcinoma
Source text: as §1, §2, §3

human cell line LXFL529L = assay: Proliferation assay (sulforhodamin B assay), growth inhibition of tumor cells; conditions: LXFL 529L
Method: The inhibition of the growth of tumor cells due to the compounds according to the invention was determined on the human cell line LXFL529L. As a proliferation assay the sulforhodamin B assay as described by Skehan et al. (J. Natl. Cancer Inst. 82:1107-1112 (1990)) was used.

## Clc1nc2c(N3CCSC3)nc(N3CCNCC3)nc2nc1N1CCSC1 [E288, 6-Chloro-2-Piperazino-4,7-Dithiazolidino-Pteridine]
NCI-H460
  IC50: 18.2 µM
COLO 205
  IC50: 6.19 µM

## COc1nc2c(N3CCCC3)nc(N3CCNCC3)nc2nc1N1CCCC1 [E 293, 6-Methoxy-2-Piperazino-4,7-Dipyrrolidino-Pteridine]
Human cell line LXFL529L
  IC50: 3.4 ± 1 µM

## COc1nc2c(N3CCSC3)nc(N3CCNCC3)nc2nc1N1CCSC1 [E289, 6-Methoxy-2-Piperazino-4,7-Dithiazolidino-Pteridine]
NCI-H460
  IC50: 13.9 µM
COLO 205
  IC50: 9.64 µM

## CSc1nc2c(N3CCCC3)nc(N3CCNCC3)nc2nc1N1CCCC1 [E 294, 6-Methylthio-2-Piperazino-4,7-Dipyrrolidino-Pteridine]
Human cell line LXFL529L
  IC50: 3 ± 0.3 µM

## Clc1nc2c(N3CCCC3)nc(N3CCNCC3)nc2nc1N1CCCC1 [E499, 6-Chloro-2-Piperazino-4,7-Dipyrrolidino-Pteridine]
NCI-H460; Homo sapiens
  IC50: 31.6 µM
COLO 205; Homo sapiens
  IC50: 9.75 µM
